Where a name gives a salt, the structure may show the parent alone.
Columns and labels:
DNA-PK = DNA-PK (Homo sapiens (Human), UniProt P78527); assay: DNA-PK Enzyme-Linked Immunosorbent Assay (phosphorylation of GST-p53 (1-101) peptide); format: biochemical; details: ELISA, ATP 20 μM
Summary of the method: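 Inhibition measured by 450 nm absorbance after HRP/TMB detection of phospho-Ser15 on immobilized GST-p53 (1-101). The kinase reaction used 0.1 μg/mL DNA-PK and 20 μM ATP, 1 h at 25 °C. Ten 3-fold compound dilutions, top final concentration 100 nM.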

ATM = ATM (Homo sapiens (Human), UniProt Q13315); assay: ATM in Cell Western Assay (pKAP1 in etoposide-treated MCF-7 cells); format: cell-based; details: MCF-7 cells, etoposide 100 μM, 1 hr, pKAP1 readout
Sequence of ATM (Q13315 whole entry): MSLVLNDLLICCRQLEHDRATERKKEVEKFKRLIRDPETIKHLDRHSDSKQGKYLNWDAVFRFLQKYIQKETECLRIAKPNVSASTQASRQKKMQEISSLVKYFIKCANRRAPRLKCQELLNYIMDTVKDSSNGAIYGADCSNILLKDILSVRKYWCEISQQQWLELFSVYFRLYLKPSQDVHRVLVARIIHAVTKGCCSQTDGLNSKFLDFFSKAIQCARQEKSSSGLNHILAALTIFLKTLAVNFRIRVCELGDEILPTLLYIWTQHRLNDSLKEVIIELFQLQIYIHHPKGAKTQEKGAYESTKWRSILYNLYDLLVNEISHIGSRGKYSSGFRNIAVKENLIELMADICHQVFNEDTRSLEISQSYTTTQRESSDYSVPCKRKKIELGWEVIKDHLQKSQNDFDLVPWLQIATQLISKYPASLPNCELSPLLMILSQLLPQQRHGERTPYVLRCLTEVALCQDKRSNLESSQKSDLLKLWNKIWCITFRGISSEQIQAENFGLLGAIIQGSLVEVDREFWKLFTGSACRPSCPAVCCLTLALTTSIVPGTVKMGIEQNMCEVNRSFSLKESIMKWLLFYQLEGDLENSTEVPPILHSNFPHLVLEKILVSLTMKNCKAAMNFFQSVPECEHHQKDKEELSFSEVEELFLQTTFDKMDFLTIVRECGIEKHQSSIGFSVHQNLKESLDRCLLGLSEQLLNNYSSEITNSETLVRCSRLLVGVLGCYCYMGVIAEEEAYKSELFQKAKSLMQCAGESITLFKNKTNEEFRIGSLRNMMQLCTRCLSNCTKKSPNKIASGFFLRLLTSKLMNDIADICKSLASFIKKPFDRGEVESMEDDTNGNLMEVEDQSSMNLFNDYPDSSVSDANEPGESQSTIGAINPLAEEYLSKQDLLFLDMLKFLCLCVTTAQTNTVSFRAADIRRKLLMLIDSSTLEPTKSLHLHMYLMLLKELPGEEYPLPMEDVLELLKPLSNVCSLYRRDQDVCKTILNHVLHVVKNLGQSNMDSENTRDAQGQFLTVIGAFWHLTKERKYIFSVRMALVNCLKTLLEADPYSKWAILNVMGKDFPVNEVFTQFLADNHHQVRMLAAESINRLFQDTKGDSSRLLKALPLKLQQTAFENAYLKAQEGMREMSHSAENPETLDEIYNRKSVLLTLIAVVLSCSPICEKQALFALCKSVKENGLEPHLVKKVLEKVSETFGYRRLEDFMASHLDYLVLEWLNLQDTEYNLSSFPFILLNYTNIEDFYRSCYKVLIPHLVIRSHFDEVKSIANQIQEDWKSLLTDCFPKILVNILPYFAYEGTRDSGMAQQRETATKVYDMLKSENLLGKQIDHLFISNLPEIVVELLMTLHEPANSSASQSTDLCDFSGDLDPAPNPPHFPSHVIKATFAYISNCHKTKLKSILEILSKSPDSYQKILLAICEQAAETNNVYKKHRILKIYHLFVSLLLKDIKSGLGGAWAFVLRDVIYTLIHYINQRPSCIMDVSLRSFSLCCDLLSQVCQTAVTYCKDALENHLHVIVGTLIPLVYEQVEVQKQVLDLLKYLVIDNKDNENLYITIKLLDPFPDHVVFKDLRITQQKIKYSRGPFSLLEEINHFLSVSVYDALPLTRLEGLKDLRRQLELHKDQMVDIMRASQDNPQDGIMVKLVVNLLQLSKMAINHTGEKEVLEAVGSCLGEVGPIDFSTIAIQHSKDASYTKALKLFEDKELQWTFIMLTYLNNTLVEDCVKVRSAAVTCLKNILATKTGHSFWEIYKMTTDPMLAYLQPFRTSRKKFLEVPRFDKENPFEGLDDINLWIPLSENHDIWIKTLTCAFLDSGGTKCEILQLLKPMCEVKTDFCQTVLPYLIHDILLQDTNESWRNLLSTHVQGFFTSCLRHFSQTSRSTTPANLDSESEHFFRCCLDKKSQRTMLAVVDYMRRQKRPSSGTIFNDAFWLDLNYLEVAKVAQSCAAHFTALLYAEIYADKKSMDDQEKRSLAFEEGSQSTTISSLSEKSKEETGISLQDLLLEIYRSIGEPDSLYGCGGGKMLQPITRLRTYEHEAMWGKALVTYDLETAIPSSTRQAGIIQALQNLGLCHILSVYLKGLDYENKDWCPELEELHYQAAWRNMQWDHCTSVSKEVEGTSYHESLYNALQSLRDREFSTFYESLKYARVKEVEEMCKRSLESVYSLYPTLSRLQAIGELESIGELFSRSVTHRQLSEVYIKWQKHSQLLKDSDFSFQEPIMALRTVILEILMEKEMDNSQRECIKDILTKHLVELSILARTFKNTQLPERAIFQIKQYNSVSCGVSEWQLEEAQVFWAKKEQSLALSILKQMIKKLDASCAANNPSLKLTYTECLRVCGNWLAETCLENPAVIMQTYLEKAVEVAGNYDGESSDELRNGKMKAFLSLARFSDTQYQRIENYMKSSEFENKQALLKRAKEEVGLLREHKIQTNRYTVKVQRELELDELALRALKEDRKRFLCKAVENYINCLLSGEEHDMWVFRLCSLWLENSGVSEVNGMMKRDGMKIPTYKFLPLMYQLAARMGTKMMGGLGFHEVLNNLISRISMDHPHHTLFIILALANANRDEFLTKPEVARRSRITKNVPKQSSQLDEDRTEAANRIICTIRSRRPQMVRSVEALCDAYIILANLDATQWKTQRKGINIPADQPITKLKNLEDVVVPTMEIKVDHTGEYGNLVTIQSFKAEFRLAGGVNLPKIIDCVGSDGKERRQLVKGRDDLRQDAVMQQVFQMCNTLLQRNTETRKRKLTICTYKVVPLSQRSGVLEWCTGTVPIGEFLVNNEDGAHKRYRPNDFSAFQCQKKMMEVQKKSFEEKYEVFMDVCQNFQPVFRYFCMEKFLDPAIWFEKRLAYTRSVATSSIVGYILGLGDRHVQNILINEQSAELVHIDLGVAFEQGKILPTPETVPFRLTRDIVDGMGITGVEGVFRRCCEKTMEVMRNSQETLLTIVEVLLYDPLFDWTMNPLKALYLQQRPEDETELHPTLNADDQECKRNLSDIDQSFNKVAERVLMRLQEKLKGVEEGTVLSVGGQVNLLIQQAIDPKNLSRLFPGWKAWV
Summary of the method: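 After paraformaldehyde fixation and Triton X-100 permeabilization, immunostained plates were read by infrared scanning (ODYSSEY CLx). Compound was given as 10 doses, 3-fold dilutions from a 1 μM final top concentration.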

Question: With `CN(C)CCCOc1ncc(-c2ccc3ncc4c(c3c2)C2(CC2)C(=O)N4C)cc1NS(=O)(=O)c1ccccc1F` [Example 107, N-(2-(3-(Dimethylamino)propoxy)-5-(3′-methyl-2′-oxo-2′,3′-dihydrospiro[cyclopropane-1,1′-pyrrolo[2,3-c]quinolin]-8′-yl)pyridin-3-yl)-2-fluorobenzenesulfonamide] as the compound, how does the IC50 (DNA-PK) read?
Answer: The IC50 was under 0.5 nM.

Question: And the IC50 (ATM)?
Answer: Its IC50 is 0.5 to 1 nM.

Question: What does the source list for `CN(C)CCCOc1ncc(-c2ccc3ncc4c(c3c2)C2(CC2)C(=O)N4C)cc1NS(=O)(=O)N(C)C` [Example 109]?
Answer: IC50 (DNA-PK): < 0.5 nM; IC50 (ATM): 1 to 100 nM

Question: For `CN(C)CCCOc1ncc(-c2ccc3ncc4c(c3c2)C2(CC2)C(=O)N4C)cc1NS(=O)(=O)c1ccc(F)c(C#N)c1` [Example 111, 3-Cyano-N-(2-(3-(dimethylamino)propoxy)-5-(3′-methyl-2′-oxo-2′,3′-dihydrospiro [cyclopropane-1,1′-pyrrolo[2,3-c]quinolin]-8′-yl)pyridin-3-yl)-4-fluorobenzenesulfonamide], which IC50 (DNA-PK) is on record?
Answer: The IC50 was under 0.5 nM.

Question: What about the IC50 (ATM) of the same compound?
Answer: The IC50 was 1 to 100 nM.

Question: `CN(C)CCCOc1ncc(-c2ccc3ncc4c(c3c2)C2(CC2)C(=O)N4C)cc1NS(=O)(=O)c1ccn(C)n1` [Example 112, N-(2-(3-(Dimethylamino)propoxy)-5-(3′-methyl-2′-oxo-2′,3′-dihydrospiro[cyclopropane-1,1′-pyrrolo[2,3-c]quinolin]-8′-yl)pyridin-3-yl)-1-methyl-1H-pyrazole-3-sulfonamide] was tested. Which IC50 (DNA-PK) did it give?
Answer: The IC50 was under 0.5 nM.

Question: What about the IC50 (ATM) of the same compound?
Answer: The IC50 was 1 to 100 nM.

Question: Which results are given for `CN1C(=O)C2(CC2)c2c1cnc1ccc(-c3cnc(N4CCC(N(C)C)CC4)c(NS(=O)(=O)C4CC4)c3)cc21` [Example 113, N-(2-(4-(Dimethylamino)piperidin-1-yl)-5-(3′-methyl-2′-oxo-2′,3′-dihydrospiro[cyclopropane-1,1′-pyrrolo[2,3-c]quinolin]-8′-yl)pyridin-3-yl)cyclopropanesulfonamide]?
Answer: IC50 (DNA-PK): < 0.5 nM; IC50 (ATM): < 0.5 nM

Question: `CN(C)CCCOc1ncc(-c2ccc3ncc4c(c3c2)C2(CN(c3ccccc3)C2)C(=O)N4C)cc1NS(=O)(=O)c1ccccc1` [Example 114, N-(2-(3-(Dimethylamino)propoxy)-5-(3′-methyl-2′-oxo-1-phenyl-2′,3′-dihydrospiro[azetidine-3,1′-pyrrolo[2,3-c]quinolin]-8′-yl)pyridin-3-yl)benzenesulfonamide] was tested. Which IC50 (DNA-PK) did it give?
Answer: The IC50 was 1 to 100 nM.

Question: What about the IC50 (ATM) of the same compound?
Answer: Its IC50 is 1 to 100 nM.

Question: Which results are given for `CN(C)CC1CCN(c2ncc(-c3ccc4ncc5c(c4c3)C3(CC3)C(=O)N5C)cc2NS(=O)(=O)C2CC2)CC1` [Example 115]?
Answer: IC50 (DNA-PK): 1 to 100 nM; IC50 (ATM): 0.5 to 1 nM

Question: `CN(C)CCCOc1ncc(-c2ccc3ncc4c(c3c2)C2(CC2)C(=O)N4C)cc1NS(=O)(=O)c1ccccc1OC(F)(F)F` [Example 116] was tested. Which IC50 (DNA-PK) did it give?
Answer: Its IC50 is 0.5 to 1 nM.

Question: What about the IC50 (ATM) of the same compound?
Answer: Its IC50 is 0.5 to 1 nM.

Question: How did the IC50 (DNA-PK) turn out when `CN1CCN(c2ncc(-c3cc4c5c(cnc4cc3F)N(C)C(=O)C53CC3)cc2NS(=O)(=O)c2ccccc2)CC1` [Example 117, N-(5-(7′-Fluoro-3′-methyl-2′-oxo-2′,3′-dihydrospiro [cyclopropane-1,1′-pyrrolo[2,3-c]quinolin]-8′-yl)-2-(4-methylpiperazin-l-yl)Pyridin-3-yl)benzenesulfonamide hydrochloride] was run?
Answer: The IC50 was 1 to 100 nM.

Question: And the IC50 (ATM)?
Answer: Its IC50 is 1 to 100 nM.

Question: How did the IC50 (DNA-PK) turn out when `CN1C(=O)C2(CC2)c2c1cnc1cc(F)c(-c3cnc(OCCCN4CCCCC4)c(NS(=O)(=O)c4ccccc4)c3)cc21` [Example 118, N-(5-(7′-Fluoro-3′-methyl-2′-oxo-2′,3′-dihydrospiro[cyclopropane-1,1′-pyrrolo[2,3-c]quinolin]-8′-yl)-2-(3-(piperidin-1-yl)propoxy)pyridin-3-yl)benzenesulfonamide hydrochloride] was run?
Answer: The IC50 was 1 to 100 nM.

Question: And the IC50 (ATM)?
Answer: Its IC50 is 1 to 100 nM.

Question: Which IC50 (DNA-PK) does the source give for `COc1ccc(S(=O)(=O)Nc2cc(-c3ccc4ncc5c(c4c3)C3(CC3)C(=O)N5C)cnc2OCCCN2CCCCC2)cc1` [Example 119, 4-Methoxy-N-(5-(3′-methyl-2′-oxo-2′,3′-dihydrospiro[cyclopropane-1,1′-pyrrolo[2,3-c]quinolin]-8′-yl)-2-(3-(piperidin-1-yl)propoxy)pyridin-3-yl(benzenesulfonamide hydrochloride] here?
Answer: The IC50 was under 0.5 nM.

Question: And the IC50 (ATM)?
Answer: Its IC50 is 1 to 100 nM.

Reference: patent publication US12187742B2 (XRAD Therapeutics, Inc., priority 2018, dated 2025)
